Measured values reported in PMC12171682, “Saarvienin A—A Novel Glycopeptide with Potent Activity against Drug‐Resistant Bacteria” (Angewandte Chemie (International Ed. in English), 2025).
≈ marks a conversion by molar mass, not a printed value. Like-named read-outs stand apart in the source and are kept apart here.

Tests used:
[1] = tested on: S. aureus HG001‐DRSA; conditions: daptomycin-resistant mutant of HG001; broth microdilution, cation-adjusted Mueller-Hinton Broth II, ~4 × 10⁵ CFU/mL, 37 °C, 24 h; mean of three independent biological replicates, each in technical triplicate
[2] = tested on: E. faecalis ATCC 29212; conditions: broth microdilution, 37 °C, 24 h
[3] = tested on: E. coli K12 ΔacrB; conditions: broth microdilution, cation-adjusted Mueller-Hinton Broth II, ~4 × 10⁵ CFU/mL, 37 °C, 24 h; mean of three independent biological replicates, each in technical triplicate
[4] = tested on: E. coli WO153 (AB1157, recJ asmB1, ΔtolC); conditions: broth microdilution, cation-adjusted Mueller-Hinton Broth II, ~4 × 10⁵ CFU/mL, 37 °C, 24 h; mean of three independent biological replicates, each in technical triplicate
[5] = tested on: M. tuberculosis H37Ra ATCC 25177
[6] = tested on: S. aureus DSM 11822 (MDR); conditions: broth microdilution, cation-adjusted Mueller-Hinton Broth II, ~4 × 10⁵ CFU/mL, 37 °C, 24 h; mean of three independent biological replicates, each in technical triplicate
[7] = tested on: vancomycin‐resistant E. faecium clinical isolates with reduced susceptibility to daptomycin (n = 26); conditions: broth microdilution, MHB II, daptomycin with 50 µg/mL Ca2+, mean of two independent experiments
[8] = tested on: E. faecalis DSM 12956 (VRE, vanB positive); conditions: broth microdilution, cation-adjusted Mueller-Hinton Broth II, ~4 × 10⁵ CFU/mL, 37 °C, 24 h; mean of three independent biological replicates, each in technical triplicate
[9] = tested on: E. coli K12 ΔtolC; conditions: broth microdilution, cation-adjusted Mueller-Hinton Broth II, 37 °C, 24 h, mean of three independent biological replicates, each in technical triplicate
[10] = tested on: S. aureus Mu50 (MRSA/VISA); conditions: broth microdilution, cation-adjusted Mueller-Hinton Broth II, ~4 × 10⁵ CFU/mL, 37 °C, 24 h; mean of three independent biological replicates, each in technical triplicate
[11] = tested on: S. aureus N315 (MRSA); conditions: broth microdilution, cation-adjusted Mueller-Hinton Broth II, ~4 × 10⁵ CFU/mL, 37 °C, 24 h; mean of three independent biological replicates, each in technical triplicate
[12] = 26 VRE E. faecium clinical isolates

## CN[C@H](CC(C)C)C(=O)N[C@H]1C(=O)N[C@@H](CC(N)=O)C(=O)N[C@H]2C(=O)N[C@H]3C(=O)N[C@H](C(=O)N[C@H](C(=O)O)c4cc(O)cc(O)c4-c4cc3ccc4O)[C@H](O)c3ccc(c(Cl)c3)Oc3cc2cc(c3O[C@@H]2O[C@H](CO)[C@@H](O)[C@H](O)[C@H]2O[C@H]2C[C@](C)(N)[C@H](O)[C@H](C)O2)Oc2ccc(cc2Cl)[C@H]1O [Vancomycin, vancomycin]
[1]
  MIC, S. aureus HG001‐DRSA: 4 µg/mL (≈ 2.76 µM)
[2]; cation-adjusted Mueller-Hinton Broth II, ~4 × 10⁵ CFU/mL, mean of three independent biological replicates, each in technical triplicate
  MIC, E. faecalis ATCC29212: 4 µg/mL (≈ 2.76 µM)
[2]; reference strain in Table S5, MHB II, daptomycin with 50 µg/mL Ca2+, mean of two independent experiments
  MIC, E. faecalis ATCC29212: 4 µg/mL (≈ 2.76 µM)
[3]
  MIC, E. coli K12 ΔacrB: >64 µg/mL
[4]
  MIC, E. coli WO153 (AB1157, recJ asmB1, ΔtolC): 32 µg/mL (≈ 22.1 µM)
[5]
  MIC, M. tuberculosis H37Ra ATCC 25177: 64 µg/mL (≈ 44.2 µM)
[6]
  MIC, S. aureus DSM 11822 (MDR): 1 µg/mL (≈ 0.69 µM)
[7]; [12]
  MIC50: >64 µg/mL
  MIC90: >64 µg/mL
[7]; clinical isolate 1, 37 °C, 24 h
  MIC, Enterococcus faecium isolate 1: > 64 µg/mL
[7]; clinical isolate 2, 37 °C, 24 h
  MIC, Enterococcus faecium isolate 2: > 64 µg/mL
[7]; clinical isolate 3, 37 °C, 24 h
  MIC, Enterococcus faecium isolate 3: 64 µg/mL (≈ 44.2 µM)
[7]; clinical isolate 4, 37 °C, 24 h
  MIC, Enterococcus faecium isolate 4: > 64 µg/mL
[7]; clinical isolate 5, 37 °C, 24 h
  MIC, Enterococcus faecium isolate 5: > 64 µg/mL
[7]; clinical isolate 6, 37 °C, 24 h
  MIC, Enterococcus faecium isolate 6: > 64 µg/mL
[7]; clinical isolate 7, 37 °C, 24 h
  MIC, Enterococcus faecium isolate 7: > 64 µg/mL
[7]; clinical isolate 8, 37 °C, 24 h
  MIC, Enterococcus faecium isolate 8: > 64 µg/mL
[7]; clinical isolate 9, 37 °C, 24 h
  MIC, Enterococcus faecium isolate 9: > 64 µg/mL
[7]; clinical isolate 10, 37 °C, 24 h
  MIC, Enterococcus faecium isolate 10: > 64 µg/mL
[7]; clinical isolate 11, 37 °C, 24 h
  MIC, Enterococcus faecium isolate 11: > 64 µg/mL
[7]; clinical isolate 12, 37 °C, 24 h
  MIC, Enterococcus faecium isolate 12: > 64 µg/mL
[7]; clinical isolate 13, 37 °C, 24 h
  MIC, Enterococcus faecium isolate 13: > 64 µg/mL
[7]; clinical isolate 14, 37 °C, 24 h
  MIC, Enterococcus faecium isolate 14: > 64 µg/mL
[7]; clinical isolate 15, 37 °C, 24 h
  MIC, Enterococcus faecium isolate 15: > 64 µg/mL
[7]; clinical isolate 16, 37 °C, 24 h
  MIC, Enterococcus faecium isolate 16: > 64 µg/mL
[7]; clinical isolate 17, 37 °C, 24 h
  MIC, Enterococcus faecium isolate 17: > 64 µg/mL
[7]; clinical isolate 18, 37 °C, 24 h
  MIC, Enterococcus faecium isolate 18: > 64 µg/mL
[7]; clinical isolate 19, 37 °C, 24 h
  MIC, Enterococcus faecium isolate 19: > 64 µg/mL
[7]; clinical isolate 20, 37 °C, 24 h
  MIC, Enterococcus faecium isolate 20: > 64 µg/mL
[7]; clinical isolate 21, 37 °C, 24 h
  MIC, Enterococcus faecium isolate 21: > 64 µg/mL
[7]; clinical isolate 22, 37 °C, 24 h
  MIC, Enterococcus faecium isolate 22: > 64 µg/mL
[7]; clinical isolate 23, 37 °C, 24 h
  MIC, Enterococcus faecium isolate 23: > 64 µg/mL
[7]; clinical isolate 24, 37 °C, 24 h
  MIC, Enterococcus faecium isolate 24: > 64 µg/mL
[7]; clinical isolate 25, 37 °C, 24 h
  MIC, Enterococcus faecium isolate 25: > 64 µg/mL
[7]; clinical isolate 26, 37 °C, 24 h
  MIC, Enterococcus faecium isolate 26: > 64 µg/mL
[8]
  MIC, E. faecalis DSM 12956 (VRE, vanB positive): 16 µg/mL (≈ 11 µM)
[9]; co‐incubated with sub‐lethal concentrations of polymyxin B nonapeptide (PMBN)
  MIC, E. coli K12 ΔtolC (tolC‐deficient) + PMBN: >64 µg/mL
[9]; without PMBN, ~4 × 10⁵ CFU/mL
  MIC, E. coli K12 ΔtolC: >64 µg/mL
[10]
  MIC, S. aureus Mu50 (MRSA/VISA): 8 µg/mL (≈ 5.52 µM)
[11]
  MIC, S. aureus N315 (MRSA): 2 µg/mL (≈ 1.38 µM)
